Results taken from article PMC4332989 (Cellular signalling, 2014).
Like-named read-outs stand apart in the source and are kept apart here.

Legend:
CB1R [1] = target: T1, CB1R (Mus musculus, UniProt P47746); assay type: cell-based; details: for agonist-stimulated maximal ERK1/2 phosphorylation: 5 min (Fig. 4B); for stimulated ERK1/2 phosphorylation: 5 min (Fig. 5B); for agonist-stimulated enhancement in phosphoERK1/2 levels: over basal (Fig. 4)
CB1R [2] = target: T1, CB1R; test: cell-based; details: for EC50: EC50, inhibition of forskolin-stimulated cAMP accumulation, 1 μM forskolin
CB1R coupling to Gαi3 = CB1R coupling to Gαi3 (Mus musculus, UniProt P47746); details: 100 nM
CB1R coupling to Gαo = CB1R coupling to Gαo (Mus musculus, UniProt P47746); details: 100 nM
CB1R coupling to Gαi1 = CB1R coupling to Gαi1 (Mus musculus, UniProt P47746); details: 100 nM
CB1R coupling to Gαi2 = CB1R coupling to Gαi2 (Mus musculus, UniProt P47746); details: 100 nM
CB1R [3] = test: On-cell-Western CB1R cell surface density in N18TG2 clones; assay type: cell-based, mouse
[4] = WT, Control or CRIP1a KD membranes

T1 sequence (P47746 whole entry): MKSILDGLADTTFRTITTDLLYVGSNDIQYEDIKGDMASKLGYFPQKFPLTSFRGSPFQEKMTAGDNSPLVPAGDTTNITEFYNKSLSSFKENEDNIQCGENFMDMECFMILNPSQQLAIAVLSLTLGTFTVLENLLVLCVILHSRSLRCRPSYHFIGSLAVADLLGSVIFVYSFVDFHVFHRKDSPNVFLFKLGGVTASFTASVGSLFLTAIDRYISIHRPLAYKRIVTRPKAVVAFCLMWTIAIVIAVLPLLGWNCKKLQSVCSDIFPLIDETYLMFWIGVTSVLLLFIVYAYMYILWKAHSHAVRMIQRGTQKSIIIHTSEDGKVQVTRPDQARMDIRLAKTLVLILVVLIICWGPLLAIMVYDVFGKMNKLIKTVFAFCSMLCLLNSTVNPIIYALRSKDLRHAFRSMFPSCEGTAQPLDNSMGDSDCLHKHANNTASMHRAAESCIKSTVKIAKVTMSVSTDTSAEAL
CB1R coupling to Gαi3, sequence (P47746 whole entry): as above
CB1R coupling to Gαo, sequence (P47746 whole entry): as above
CB1R coupling to Gαi1, sequence (P47746 whole entry): as above
CB1R coupling to Gαi2, sequence (P47746 whole entry): as above

## CCCCCCC(C)(C)c1ccc([C@@H]2C[C@H](O)CC[C@H]2CCCO)c(O)c1 [CP55940, (−)-cis-3-[2-Hydroxy-4-(1,1-dimethyl-heptyl)phenyl]-trans-4-(3-hydroxypropyl)cyclohexanol]
CB1R [1]; CRIP1a KD2C cells, 10 nM
  agonist-stimulated maximal ERK1/2 phosphorylation: 63±8%
CB1R [1]; CRIP1a KD2F cells, 10 nM
  agonist-stimulated maximal ERK1/2 phosphorylation: 59±4%
CB1R [1]; KD2C cells, 10 nM
  stimulated ERK1/2 phosphorylation: 68±4%
CB1R [1]; KD2C cells, 100 nM
  stimulated ERK1/2 phosphorylation: 58±5%
CB1R [1]; KD2F cells, 10 nM
  stimulated ERK1/2 phosphorylation: 73±5%
CB1R [1]; KD2F cells, 100 nM
  stimulated ERK1/2 phosphorylation: 62±6%
CB1R [1]; N18TG2 WT cells, 10 nM, 5 min
  agonist-stimulated enhancement in phosphoERK1/2 levels: 45±6%
CB1R [1]; WT, CRIP1a-XS and KD cells, 10 nM
  time of rapid increase in phosphoERK1/2 levels: ≤ 5 min
CB1R [2]; CRIP1a KD cells, 4 min
  EC50: 0.2 nM
CB1R [2]; CRIP1a over-expression (XS) cells, 4 min
  EC50: 1.6 nM
CB1R [2]; N18TG2 WT cells, 4 min
  EC50: 3.4 nM
CB1R coupling to Gαi3; CRIP1a KD membranes
  stimulated [35S]GTPγS binding to Gαi3: 103±22 % over basal
CB1R coupling to Gαi3; CRIP1a XS membranes
  stimulated [35S]GTPγS binding to Gαi3: 10±12 % over basal
CB1R coupling to Gαi3; Control clone membranes
  stimulated [35S]GTPγS binding to Gαi3: 62±21 % over basal
CB1R coupling to Gαi3; WT membranes
  stimulated [35S]GTPγS binding to Gαi3: 79±18 % over basal
CB1R coupling to Gαo; CRIP1a KD membranes
  enhancement in [35S]GTPγS binding to Gαo: 79±21 % over basal
CB1R coupling to Gαo; CRIP1a XS membranes
  enhancement in [35S]GTPγS binding to Gαo: 4±3 % over basal
CB1R coupling to Gαo; WT membranes
  enhancement in [35S]GTPγS binding to Gαo: 49±9 % over basal
CB1R coupling to Gαi1; CRIP1a XS membranes
  stimulation of [35S]GTPγS binding to Gαi1: 128±54 % above basal
CB1R coupling to Gαi1; [4]
  binding of Gαi1 to CB1R following treatment: no differences
CB1R coupling to Gαi2; CRIP1a XS membranes
  stimulation of [35S]GTPγS binding to Gαi2: 753±316 % above basal
CB1R coupling to Gαi2; [4]
  binding of Gαi2 to CB1R following treatment: no differences

## O=C(NN=Cc1ccc(O)c(O)c1)c1cc2ccccc2cc1O [Dynasore, 3-Hydroxynaphthalene-2-carboxylic acid (3,4-dihydroxybenzylidene)hydrazide]
CB1R [1]; WT, CRIP1a-XS and KD clones, Dynasore 80 μM, 30 min preincubation, CP55940 10 nM
  effect on CP55940-stimulated phosphorylation of ERK1/2: completely blocked

## CCCCCCCCCCC[C@@H](C[C@@H]1OC(=O)[C@H]1CCCCCC)OC(=O)[C@H](CC(C)C)NC=O [THL, tetrahydrolipstatin]
CB1R [3]; THL pretreatment 1 μM, 2 h (data not shown)
  effect on total or cell surface levels of CB1R: did not change

## Cc1c(C(=O)c2cccc3ccccc23)c2cccc3c2n1C(CN1CCOCC1)CO3 (stereo not drawn) [WIN55212-2, [2,3-dihydro-5-methyl-3-[(4-morpholinyl)methyl]pyrrolo[1,2,3-de]-1,4-benzoxazin-6-yl](1-naphthyl)methanone]
CB1R [1]; N18TG2 WT cells, 10 nM, 5 min
  agonist-stimulated enhancement in phosphoERK1/2 levels: 36±5%

## C[C@@H]1C[C@@H]([C@H](O)CC2CC(=O)NC(=O)C2)C(=O)[C@@H](C)C1 [cycloheximide]
CB1R [3]; CRIP1a XS or KD cells, 50 μM, 2 h pre-treatment (data not shown)
  effect on CB1R plasma membrane density: failed to alter

## C=C[C@@]1(C)CC(=O)[C@]2(O)[C@@]3(C)[C@@H](O)CCC(C)(C)[C@@H]3[C@H](O)[C@H](OC(C)=O)[C@@]2(C)O1 [forskolin]
CB1R [2]; 1 μM, 4 min, WT, Control, CRIP1a XS, CRIP1a KD
  stimulation of cAMP accumulation over vehicle: to the same extent in all cell lines tested

## CCCCC/C=C\C/C=C\C/C=C\C/C=C\CCCC(=O)N[C@H](C)CO [mAEA, (R)-N-(2-Hydroxy-1-methylethyl)-5Z,8Z,11Z,14Z-eicosatetraenamide]
CB1R [1]; N18TG2 WT cells, 10 nM, 5 min
  ERK phosphorylation as share of the response observed with a CB1R full agonist: ~ 30%
  agonist-stimulated enhancement in phosphoERK1/2 levels: 12±2%
CB1R [2]; all clones, not altered by differences in the expression of CRIP1a (Fig. 7B)
  effect on cAMP accumulation: concentration-dependent attenuation
